The values that follow come from EP0488424B1, “Recombinant DNA sequences encoding feedback inhibition released enzymes, plasmids comprising the recombinant DNA sequences, transformed microorganisms useful in the production of aromatic amino acids, and a process for preparing aromatic amino acids by fermentation” (priority 1990, dated 1992).

Type in all cases: biochemical
Test [1] deals with T1, Escherichia coli DS encoded by aroG, variant aroG4, 150 Pro → Leu (pTS-aroG4, strain AJ 12562) (Escherichia coli, UniProt P0AB91, P150L).
T1 construct: cloning the natural DS gene of Escherichia coli; made in house; host or cells: Escherichia coli AB3257 (strain AJ 12562), crude enzyme solution
The test is described as follows: DS enzyme activity in the presence of L-phenylalanine (crude enzyme solution). The note with it: crude enzyme of AJ 12562 (AB3257/pTS-aroG4); Fig. 3. An excerpt:
(§1) The above plasmids, bearing either mutant aroF (pTS-aroF15 and pTS-aroF33) or mutant aroG (pTS-aroG4, pTS-aroG8, pTS-aroG15, pTS-aroG17, pTS-aroG29 and pTS-aroG40), were used to transform Escherichia coli AB3257 strain having no DS activity. The respective transformants were named AJ 12598 (AB3257/pTS-aroF15), AJ 12599 (AB3257/pTS-aroF33), AJ 12562 (AB3257/pTS-aroG4), AJ 12600 (AB3257/pTS-aroG8), AJ 12563 (AB3257/pTS-aroG15), AJ 12601 (AB3257/pTS-aroG17), AJ 12602 (AB3257/pTS-aroG29) and AJ 12603 (AB3257/pTS-aroG40), respectively. Among them, AJ 12563 and AJ 12603 were deposited as representative strains in the Fermentation Research Institute of the Agency of Industrial Science & Technology of Japan, under the deposit numbers Escherichia coli FERM BP-3567 and FERM BP-3568, respectively. For the purpose of comparison, plasmids hearing wild type genes were also used to transform the E. coli AB3257 strain.
(§2) Each of these strains were cultured for 24 hours in a known L-phenylalanine-producing medium [Sugimoto, S. et al., J. Biotechnol., 5, 237 (1988)]. From the culture cells, the crude enzyme solution was prepared by ultrasonic homogenization. The enzyme activity of DS was determined in a conventional manner [Gollub, E. et al., Methods Enzymol., 17, 349], in the presence of L-tyrosine in the case of aroF, and in the presence of L-phenylalanine in the case of aroG.

Test [2] concerns the target T2, Escherichia coli DS encoded by aroG, variant aroG8, 202 Ala → Thr (pTS-aroG8) (Escherichia coli, UniProt P0AB91, A202T).
T2 construct: cloning the natural DS gene of Escherichia coli; made in house; host or cells: Escherichia coli AB3257 (strain AJ 12600), crude enzyme solution
Described as above. The note with it: crude enzyme of AJ 12600 (AB3257/pTS-aroG8); Fig. 3.
Source text: as §1, §2

The target of test [3] is T3, Escherichia coli 3-deoxy-D-arabinoheptulonic acid-7-phosphate synthase (DS) encoded by aroG, wild type (pTS-aroG) (Escherichia coli, UniProt P0AB91).
T3 construct: cloning the natural DS gene of Escherichia coli; made in house; host or cells: Escherichia coli AB3257 (no DS activity), crude enzyme solution
The test is described as above. The note with it: crude enzyme of AB3257/pTS-aroG; concentration not stated in text (Fig. 3).
Source text: as §1, §2

Test [4] addresses T4, Escherichia coli DS encoded by aroG, variant aroG29, 147 Met → Ile (pTS-aroG29) (Escherichia coli, UniProt P0AB91, M147I).
T4 construct: cloning the natural DS gene of Escherichia coli; made in house; host or cells: Escherichia coli AB3257 (strain AJ 12602), crude enzyme solution
The description is as above. The note with it: crude enzyme of AJ 12602 (AB3257/pTS-aroG29); Fig. 3.
Source text: as §1, §2

The target of test [5] is T5, Escherichia coli DS encoded by aroG, variant aroG15, 146 Asp → Asn (pTS-aroG15) (Escherichia coli, UniProt P0AB91, D146N).
T5 construct: cloning the natural DS gene of Escherichia coli; made in house; host or cells: Escherichia coli AB3257 (strain AJ 12563), crude enzyme solution
The test is described as above. The note with it: crude enzyme of AJ 12563 (AB3257/pTS-aroG15); Fig. 3.
Source text: as §1, §2

Test [6] deals with T6, Escherichia coli DS encoded by aroG, variant aroG40, 157 Met → Ile, 219 Ala → Thr (pTS-aroG40) (Escherichia coli, UniProt P0AB91, A219T/M157I).
T6 construct: cloning the natural DS gene of Escherichia coli; made in house; host or cells: Escherichia coli AB3257 (strain AJ 12603), crude enzyme solution
The test is described as above. The note with it: crude enzyme of AJ 12603 (AB3257/pTS-aroG40); Fig. 3.
Source text: as §1, §2

Test [7] concerns the target T7, Escherichia coli DS encoded by aroG, variant aroG17, 147 Met → Ile, 332 Glu → Lys (pTS-aroG17) (Escherichia coli, UniProt P0AB91, E332K/M147I).
T7 construct: cloning the natural DS gene of Escherichia coli; made in house; host or cells: Escherichia coli AB3257 (strain AJ 12601), crude enzyme solution
Described as above. The note with it: crude enzyme of AJ 12601 (AB3257/pTS-aroG17); Fig. 3.
Source text: as §1, §2

The target of test [8] is T8, Escherichia coli K-12 chorismate mutase-prephenate dehydratase (CM-PD), variant with 330 serine residue substituted with a proline residue (pPHAB) (Escherichia coli, UniProt P0A9J8, S330P).
T8 construct: the natural CM-PD gene of Escherichia coli is cloned; made in house; host or cells: Escherichia coli K-12 W3110 (tyrA), crude enzyme solution
Briefly: PD enzyme activity in the presence of L-phenylalanine (crude enzyme). The note with it: 5 mM L-phenylalanine; 1 mM barium prephenate, 0.5 mM L-tyrosine, pH 8.2, 37°C, 10 minutes; Fig. 4. The procedure: (§3) Escherichia coli K-12 W3110 (tyrA)/(pPHAB) strain was cultured at 37°C for 15 hours in L medium and the cells were collected by centrifugation. Then, the cells were washed twice with physiological saline, and suspended in 250 mM Tris-hydrochloride buffer (pH 7.5) containing 0.5 mM dithiothreitol under ice cooling. By ultrasonication (20 KHz) for 30 seconds four times, the crude enzyme solution was prepared.
(§4) The PD enzyme activity was determined in a conventional manner [Cotton, R.G.H. and Gibson, F., Meth. in Enzymol., 17, 564 (1970)]. Using the crude enzyme, the enzymatic reaction was carried out at 37°C for 10 minutes in the presence of 50 mM Tris-hydrochloride buffer (pH 8.2) containing 1 mM barium prephenate and 0.5 mM L-tyrosine. Aqueous sodium hydroxide (1 N) was added to terminate the reaction, and the formed phenylpyruvic acid was measured at an extinction wavelength of 320 nm.
(§5) Quantitative determination of protein was made using the Protein Assay Kit (manufactured by Bio Rad Co.), according to the protocol of the manufacturer.

The target of test [9] is T9, Escherichia coli chorismate mutase-prephenate dehydratase (CM-PD), wild type (Escherichia coli, UniProt P0A9J8).
T9 construct: the natural CM-PD gene of Escherichia coli is cloned; made in house
Described as above. The note with it: 0.5 mM L-phenylalanine; 1 mM barium prephenate, 0.5 mM L-tyrosine, pH 8.2, 37°C, 10 minutes; Fig. 4. The procedure: as §3, §4, §5

Test [10] deals with T10, Escherichia coli K-12 chorismate mutase-prephenate dehydratase (CM-PD), variant with 330 serine residue substituted with an aspartic acid (pPHAD) (Escherichia coli, UniProt P0A9J8, S330D).
T10 construct: the natural CM-PD gene of Escherichia coli is cloned; made in house; host or cells: Escherichia coli W3110 (tyrA), crude enzyme
The test is described as above. The note with it: crude enzyme of W3110 (tyrA)/(pPHAD); concentration not given. The procedure:
as §3, §4, §5
(§6) By using the same method above, the PD enzyme activities of Escherichia coli W3110 (tyrA)/(pPHAD) and Escherichia coli W3110 (tyrA)/(pPHATerm) were determined.

Test [11] addresses T11, Escherichia coli K-12 chorismate mutase-prephenate dehydratase (CM-PD), variant with amino acid residues downstream from the 330 serine residue deleted (pPHATer (Escherichia coli, UniProt P0A9J8)).
T11 construct: made in house; host or cells: Escherichia coli W3110 (tyrA), crude enzyme
Described as above. The note with it: crude enzyme of W3110 (tyrA)/(pPHATerm); concentration not given. The procedure: as §3, §4, §5, §6

For test [12], the target named is T12, Escherichia coli DS encoded by aroF, variant aroF33, 181 Ser → Phe (pTS-aroF33) (Escherichia coli, UniProt P00888, S181F).
T12 construct: cloning the natural DS gene of Escherichia coli; made in house; host or cells: Escherichia coli AB3257 (strain AJ 12599), crude enzyme solution
The test is described as follows: DS enzyme activity in the presence of L-tyrosine (crude enzyme solution). The note with it: crude enzyme of AJ 12599 (AB3257/pTS-aroF33); concentration not stated in text (Fig. 2).
Source text: as §1, §2

For test [13], the target named is T13, Escherichia coli 3-deoxy-D-arabinoheptulonic acid-7-phosphate synthase (DS) encoded by aroF, wild type (pTS-aroF) (Escherichia coli, UniProt P00888).
T13 construct: cloning the natural DS gene of Escherichia coli; made in house; host or cells: Escherichia coli AB3257 (aroF, aroG, aroH deleted), crude enzyme solution
The description is as above. The note with it: crude enzyme of AB3257/pTS-aroF; concentration not stated in text (Fig. 2).
Source text: as §1, §2

Test [14] concerns the target T14, Escherichia coli DS encoded by aroF, variant aroF15, 147 Asp → Asn (pTS-aroF15) (Escherichia coli, UniProt P00888, D147N).
T14 construct: cloning the natural DS gene of Escherichia coli; made in house; host or cells: Escherichia coli AB3257 (strain AJ 12598), crude enzyme solution
The test is described as above. The note with it: crude enzyme of AJ 12598 (AB3257/pTS-aroF15); concentration not stated in text (Fig. 2).
Source text: as §1, §2

`N[C@@H](Cc1ccccc1)C(=O)O` [L-phenylalanine]: in test [1], the “DS enzyme activity as a function of L-phenylalanine concentration” value is on record as “increases as the concentration of L-phenylalanine increases”. In addition, the “inhibition by L-phenylalanine of DS enzyme activity” value in test [1] is given as “releases feedback inhibition”; in test [2], “feedback inhibition by L-phenylalanine is released”; in test [3], “strongly inhibited”; in test [4], “feedback inhibition by L-phenylalanine is released”; in test [5], “feedback inhibition by L-phenylalanine is released”; in test [6], “feedback inhibition by L-phenylalanine is released”. Further, the “inhibition by L-phenylalanine of DS enzyme activity” value in test [7] is recorded as “feedback inhibition by L-phenylalanine is released”. For the same molecule, the entries for the “inhibition by L-phenylalanine of prephenate dehydratase activity” value in test [8] and in test [9] were “almost no inhibition” and “strongly inhibited”, respectively. Besides, the “feedback inhibition by L-phenylalanine of PD enzyme activity” value in test [10] and in test [11] was “released from feedback inhibition” in each case.

`N[C@@H](Cc1ccc(O)cc1)C(=O)O` [L-tyrosine]: the “inhibition by L-tyrosine of DS enzyme activity” value in [12] is on record as “released from feedback inhibition”; in test [13], “strongly inhibited”; in [14], “released from feedback inhibition”.
